According to publication PMC11946258, “Self-Assembly, Antimicrobial Properties and Biodegradability of Ester-Functionalized Choline-Based Surface-Active Ionic Liquids” (Molecules, 2025):
Values joined by “and” are separate entries in the source; they are usually repeats but may differ in a detail not shown here. Equal values may be shown once.

Columns and labels:
[1] = test system: Vibrio fischeri; test: Vibrio fischeri bioluminescence inhibition assay; assay type: cell-based; details: Aliivibrio fischeri, 0.5 h; luminescence inhibition, 30-min exposure, 15 °C; read-out: V. fisheri, EC50 (95% CI)
Experimental: To assess the aquatic toxicity of ester-functionalized cholinium-based ILs, a series of toxicity tests were conducted using the saltwater bacterium Vibrio fischeri. The bioluminescence inhibition assay with V. fischeri is a well-standardized and frequently employed method in ecotoxicological studies due to its sensitivity and reliability. The experimental procedure involved exposing V. fischeri to increasing concentrations of ILs and measuring the reduction in bioluminescence after a 30-min period. This bioluminescence reduction serves as a quantitative indicator of the ILs’ aquatic toxicity in marine bacteria.
The V. fisheri bioluminescence assay was used to assess the aquatic toxicity of ester-functionalized choline-based ILs. […] We determined the concentration causing a 50% reduction in bacterial light emission (EC50) through regression analysis. The reported toxicity data are based on a 30-min exposure of the bacteria to the ionic liquid solution at 15 °C.

[2] = Critical micelle concentration by conductivity; assay type: physicochemical; details: aqueous solution, 25 °C
Excerpt: The change in specific conductivity of ester-functionalized choline-based ILs as a function of their concentration was investigated. […] Conductometric plots of the other homologues are presented in the Supplemetary Materials (Figures S10 and S11).
In the pre- and postmicellization zones, the specific conductivity values are represented by two straight lines with different slopes. As a consequence of the micelle’s reduced mobility in comparison to the monomers and the binding of certain counterions to it, a pronounced change in slope is observed. The critical micelle concentration (CMC) value was calculated from the point of inflection in the curve. […] In accordance with the empirical Stauff–Klevens Equation (1), a linear relationship is observed between log CMC and alkyl chain length:log cmc = A − B × n(1)
Conductivity measurements were carried out at 25 °C using an Orion conductivity cell 913005MD with an epoxy/graphite electrode and a Thermo Orion 5 Star multiparameter instrument with a cell constant of 0.475 cm^−1.

[3] = test system: erythrocytes from rabbit blood; test: Hemolytic activity; assay type: cell-based; details: concentration inducing 50% hemolysis, PBS pH 7.4, 10 min
Experimental: To perform an initial assessment of cell toxicity, hemolysis has been employed. The hemolytic activity of ester-functionalized choline-based ILs was determined by mesuring the release of haemoglobin in erythrocytes from rabbit blood samples in the presence of these compounds. The HC50 values, representing the concentracion inducing 50% hemolysis, were calculated from the plots of the percentages of hemolysis versus CnECholBr concentration (Figure 7). The HC50 values are compiled in Table 4.
Rabbit blood samples, used to prepare the erythrocyte suspension, were obtained from the animal facility of the Research and Development Center (CID) of the Spanish National Research Council (CID-CSIC) in Barcelona, Spain. The collection of fresh blood from rabbits adhered strictly to the bioethical guidelines stipulated by Spanish legislation, ensuring ethical treatment of the animals and compliance with research protocols. Heparinized blood samples were centrifuged for 10 min at 3000 rpm. The supernatant containing the white cells was discarded, while the erythrocytes were washed three times in PBS (pH 7.4). Erythrocytes were then suspended in PBS at a cell density of 8 × 10^9 cells/mL. A series of different volumes of a concentrated IL solution (10 to 80 μL) were placed in Eppendorf tubes containing 25 μL of erythrocyte suspension and PBS was added to each tube to a total volume of 1 mL [33]. Samples were shaken for 10 min at rt and the tubes were centrifuged (5 min at 10,000 rpm). The percentage of hemolysis was calculated by comparing the absorbance (540 nm) of the supernatant of the samples containing surfactants with that of the hemolyzed control with distilled water. The HC50 (concentration of surfactant that causes 50% hemolysis) was determined from the concentration-response curves.

[4] = test system: Candida tropicalis; test: Antifungal MIC broth microdilution; assay type: cell-based; details: ATCC7349; Candida tropicalis ATCC 7349, RPMI 1640, 24 h, 30 °C
Experimental: (§1) The antimicrobial activity of cholinium-based ILs with an ester group in the alkyl chain was evaluated against a range of representative bacteria and fungi.
(§2) The antifungal activity was evaluated against the following yeasts: Candida albicans ATCC 90028, Candida tropicalis ATCC 7349, Candida parapsilosis ATCC 22019, Candida glabrata ATCC 66032. Frozen yeast stocks were inoculated into Sabourauds’s agar (SBA) and culture plates and incubated at 35 °C for 24 h. Three to four colonies of each strain were dispersed in sterile medium, Roswell Park Memorial Institute medium (RPMI 1640 medium), to obtain dispersions with a turbidity equivalent to 0.5 on the MacFarland scale (McFarland DEN-1B Grant-bio model densitometer). Minimum fungicidal concentrations (MFC) values—the lowest concentration of an antimicrobial agent that prevents the establishment of visible microbial growth after 24 h at 30 °C—were used to determine in vitro antifungal activity. MFCs were determined using a broth microdilution assay. Serial dilutions of each IL, ranging from 512 to 2 µg/mL, were dissolved in RPMI 1640 medium and dispensed (100 µL) into the appropriate wells of a 96-well polystyrene microtiter plate. The nutrient broth starter culture of each yeast strain (100 μL) was added to achieve a final inoculum of approximately 7.5 × 10^5 CFU per mL for yeast. Nutrient broth medium without the compound was used as a growth control. The development of turbidity in an inoculated medium is a function of growth and reflects an increase in both mass and cell number. To confirm this observation, 20 μL of resazurin at 0.015% w/v was added to each well and allowed to react for approximately 2 h at 30 °C. After the incubation period, the indicator of microbial growth, i.e., a change from blue to pink, confirmed the MIC value.

[5] = test system: Candida glabrata; test: Antifungal MIC broth microdilution; assay type: cell-based; details: Nakaseomyces glabratus, ATCC66032; Candida glabrata ATCC 66032, RPMI 1640, 24 h, 30 °C
Experimental: as §1, §2

[6] = test system: Candida albicans; test: Antifungal MIC broth microdilution; assay type: cell-based; details: ATCC90028; Candida albicans ATCC 90028, RPMI 1640, 24 h, 30 °C
Experimental: as §1, §2

[7] = test system: Candida parasilopsis; test: Antifungal MIC broth microdilution; assay type: cell-based; details: Candida parapsilosis ATCC 22019, RPMI 1640, 24 h, 30 °C
Experimental: as §1, §2

Row | SMILES | EC50 [1] [mg/L] | CMC [2] [mM] | HC50 [3] | MIC [4] [mg/L] | MIC [5] [mg/L] | MIC [6] [mg/L] | MIC [7] [mg/L]
1 | CCCCCCCCCCOC(=O)C[N+](C)(C)CCO [C10ECholBr] | 1.7 | 11.2 ± 0.8 | >2500 µM | > 256 | > 256 | > 256 | > 256
2 | CCCCCCCCCCCCOC(=O)C[N+](C)(C)CCO [C12ECholBr] | 0.27 | 4.2 ± 0.5 | 232 ± 2 µM | > 256 | 32 | 64 | > 256
3 | CCCCCCCCCCCCCCOC(=O)C[N+](C)(C)CCO.[Br-] [C14ECholBr, N-(2-hydroxyethyl)-N,N-dimethyl-2-oxo-2-(tetradecyloxy)ethan-1-aminium bromide] | 0.44 | 0.7 ± 0.1 | 56 µM and 56 ± 1 µM | > 256 | > 256 | > 256 | > 256
